# Measured values from patent EP1295874A2, “Retroviral protease inhibiting compounds” (Abbott Laboratories, priority 1995, dated 1997).
# Columns and labels:
# Assay in all cases: microbe, parasite or virus in culture
# Type in all cases: cell-based
# [1] = tested on: HIV Selected In Vitro by the Compound of Example 2B
# [2] = tested on: Ritonavir-Resistant Mutant HIV Clones
# [3] = tested on: Ritonavir-Resistant HIV from Patients
compound,measurement,setting,value
CC(C)c1nc(CN(C)C(=O)N[C@H](C(=O)N[C@@H](Cc2ccccc2)C[C@H](O)[C@H](Cc2ccccc2)NC(=O)OCc2cncs2)C(C)C)cs1 [Ritonavir],EC50,"[1]; Human immunodeficiency virus 1, NL43, Virus NL4-3",98 nM
same,EC50,"[1]; Human immunodeficiency virus 1, Virus P7",221 nM
same,EC50,"[1]; Human immunodeficiency virus 1, Virus P11",478 nM
same,EC50,"[1]; Human immunodeficiency virus 1, Virus P14",1740 nM
same,EC50,"[1]; Human immunodeficiency virus 1, Virus P17",2090 nM
same,cross-resistance (fold),"[1]; passaged virus P14, P17",18-20 fold
same,EC50,"[2]; Human immunodeficiency virus 1, HXB2, Virus Clone Wild Type (HXB2), 0% Human Serum",64 nM
same,EC50,"[2]; Human immunodeficiency virus 1, HXB2, Virus Clone Wild Type (HXB2), 50% Human Serum",1050 nM
same,EC50,"[2]; Human immunodeficiency virus 1, Virus Clone E35D, M36I, I54V, A71V, V82T, 0% Human Serum",1170 nM
same,EC50,"[2]; Human immunodeficiency virus 1, Virus Clone E35D, M36I, I54V, A71V, V82T, 50% Human Serum",21900 nM
same,EC50,"[2]; Human immunodeficiency virus 1, Virus Clone G48V, 0% Human Serum",111 nM
same,EC50,"[2]; Human immunodeficiency virus 1, Virus Clone G48V, 50% Human Serum",1710 nM
same,EC50,"[2]; Human immunodeficiency virus 1, Virus Clone I54V, V82T, 0% Human Serum",613 nM
same,EC50,"[2]; Human immunodeficiency virus 1, Virus Clone I54V, V82T, 50% Human Serum",16700 nM
same,EC50,"[2]; Human immunodeficiency virus 1, Virus Clone I84V, 0% Human Serum",141 nM
same,EC50,"[2]; Human immunodeficiency virus 1, Virus Clone I84V, 50% Human Serum",2720 nM
same,EC50,"[2]; Human immunodeficiency virus 1, Virus Clone K20R, E35D, M36I, I54V, A71V, V82T, 0% Human Serum",1420 nM
same,EC50,"[2]; Human immunodeficiency virus 1, Virus Clone K20R, E35D, M36I, I54V, A71V, V82T, 50% Human Serum",16000 nM
same,EC50,"[2]; Human immunodeficiency virus 1, Virus Clone L90M, 0% Human Serum",93 nM
same,EC50,"[2]; Human immunodeficiency virus 1, Virus Clone L90M, 50% Human Serum",2280 nM
same,EC50,"[2]; Human immunodeficiency virus 1, Virus Clone V82A, 0% Human Serum",144 nM
same,EC50,"[2]; Human immunodeficiency virus 1, Virus Clone V82A, 50% Human Serum",4080 nM
same,EC50,"[2]; Human immunodeficiency virus 1, Virus Clone V82F, 0% Human Serum",146 nM
same,EC50,"[2]; Human immunodeficiency virus 1, Virus Clone V82F, 50% Human Serum",3600 nM
same,EC50,"[2]; Human immunodeficiency virus 1, Virus Clone V82S, 0% Human Serum",304 nM
same,EC50,"[2]; Human immunodeficiency virus 1, Virus Clone V82S, 50% Human Serum",9220 nM
same,EC50,"[2]; Human immunodeficiency virus 1, Virus Clone V82T, 0% Human Serum",146 nM
same,EC50,"[2]; Human immunodeficiency virus 1, Virus Clone V82T, 50% Human Serum",5640 nM
same,EC50,"[2]; Human immunodeficiency virus 1, Virus Clone Wild Type (pNL4-3), 0% Human Serum",71 nM
same,EC50,"[2]; Human immunodeficiency virus 1, Virus Clone Wild Type (pNL4-3), 50% Human Serum",1400 nM
same,EC50,"[3]; Human immunodeficiency virus 1, 24 h, Patient No. 313, Day 1, baseline",12 nM
same,EC50,"[3]; Human immunodeficiency virus 1, 24 h, Patient No. 410, Day 1, baseline",29 nM
same,EC50,"[3]; Human immunodeficiency virus 1, 504 h, Patient No. 104, Day 21, V82A",46 nM
same,EC50,"[3]; Human immunodeficiency virus 1, 672 h, Patient No. 104, Day 28, V82T",67 nM
same,EC50,"[3]; Human immunodeficiency virus 1, Patient No. 104, Day -1, baseline",21 nM
same,EC50,"[3]; Human immunodeficiency virus 1, Patient No. 129, Day 84, M36I, I54V, A71V, V82T",203 nM
same,EC50,"[3]; Human immunodeficiency virus 1, Patient No. 129, Day 140, K20K/R, M36M/I, I54V, A71A/V, V82T",677 nM
same,EC50,"[3]; Human immunodeficiency virus 1, Patient No. 129, Day -1, baseline",24 nM
same,EC50,"[3]; Human immunodeficiency virus 1, Patient No. 131, Day 88, M36I, 154V>I, V82A",163 nM
same,EC50,"[3]; Human immunodeficiency virus 1, Patient No. 131, Day 200, K20K/R, M36I, I54I/V, V82A",731 nM
same,EC50,"[3]; Human immunodeficiency virus 1, Patient No. 131, Day -28, baseline",18 nM
same,EC50,"[3]; Human immunodeficiency virus 1, Patient No. 224, Day 110, L33L/F, V82T/S",79 nM
same,EC50,"[3]; Human immunodeficiency virus 1, Patient No. 224, Day 190, K20K/N/R, L33L/F, M36M/I, I54V/M, V82S",496 nM
same,EC50,"[3]; Human immunodeficiency virus 1, Patient No. 224, Day -6, baseline",29 nM
same,EC50,"[3]; Human immunodeficiency virus 1, Patient No. 235, Day 167, I54I/V, A71V, V82A. L90L/M",66 nM
same,EC50,"[3]; Human immunodeficiency virus 1, Patient No. 235, Day -1, baseline",10 nM
same,EC50,"[3]; Human immunodeficiency virus 1, Patient No. 313, Day 57, M36M/I, V82F",64 nM
same,EC50,"[3]; Human immunodeficiency virus 1, Patient No. 313, Day 85, M36M/I, I54I/V, V82S/F/A/T",274 nM
same,EC50,"[3]; Human immunodeficiency virus 1, Patient No. 410, Day 57, M36M/I, I54I/V, V82A",341 nM
same,EC50,"[3]; Human immunodeficiency virus 1, Patient No. 410, Day 85, M36I, I54V, V82A",545 nM
